Test results taken from ChEMBL document CHEMBL5465560, “Selectivity Literature for EUbOPEN Chemogenomic Library” (2024).
Each block holds one compound with its values, some of them ahead of it.

What was measured:
[1] = molecular target: T1, NUAK family SNF1-like kinase 1 (Homo sapiens) (UniProt O60285); assay: Selectivity interaction (Adapta Assay) EUB0001632a NUAK1; settings: at 10 µM
T1 sequence (whole entry): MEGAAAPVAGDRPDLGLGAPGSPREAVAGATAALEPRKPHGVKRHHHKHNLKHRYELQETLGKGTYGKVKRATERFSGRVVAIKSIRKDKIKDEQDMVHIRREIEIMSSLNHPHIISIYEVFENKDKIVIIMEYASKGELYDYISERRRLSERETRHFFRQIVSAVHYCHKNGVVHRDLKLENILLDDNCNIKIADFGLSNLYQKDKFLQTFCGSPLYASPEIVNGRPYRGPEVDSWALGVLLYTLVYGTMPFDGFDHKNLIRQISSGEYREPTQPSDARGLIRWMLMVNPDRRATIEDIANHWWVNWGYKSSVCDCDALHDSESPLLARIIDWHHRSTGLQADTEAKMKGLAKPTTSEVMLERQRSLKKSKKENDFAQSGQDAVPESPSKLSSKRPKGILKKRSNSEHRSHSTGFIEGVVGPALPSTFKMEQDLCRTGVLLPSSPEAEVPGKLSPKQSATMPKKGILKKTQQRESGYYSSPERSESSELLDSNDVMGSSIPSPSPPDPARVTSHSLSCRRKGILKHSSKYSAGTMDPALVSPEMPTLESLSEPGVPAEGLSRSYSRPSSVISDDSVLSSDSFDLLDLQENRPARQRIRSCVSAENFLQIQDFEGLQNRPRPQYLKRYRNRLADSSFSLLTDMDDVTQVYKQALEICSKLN

[2] = molecular target: Activin receptor type-2B (Homo sapiens) (UniProt Q13705); assay: Selectivity interaction (KinomeScan (DiscoverX)) EUB0000666a ACVR2B; settings: at 10 µM
[3] = molecular target: T2, Mitogen-activated protein kinase kinase kinase 7 (Homo sapiens) (UniProt O43318); assay: Selectivity interaction (KinomeScan (DiscoverX)) EUB0000666a MAP3K7; settings: at 10 µM
T2 sequence (whole entry): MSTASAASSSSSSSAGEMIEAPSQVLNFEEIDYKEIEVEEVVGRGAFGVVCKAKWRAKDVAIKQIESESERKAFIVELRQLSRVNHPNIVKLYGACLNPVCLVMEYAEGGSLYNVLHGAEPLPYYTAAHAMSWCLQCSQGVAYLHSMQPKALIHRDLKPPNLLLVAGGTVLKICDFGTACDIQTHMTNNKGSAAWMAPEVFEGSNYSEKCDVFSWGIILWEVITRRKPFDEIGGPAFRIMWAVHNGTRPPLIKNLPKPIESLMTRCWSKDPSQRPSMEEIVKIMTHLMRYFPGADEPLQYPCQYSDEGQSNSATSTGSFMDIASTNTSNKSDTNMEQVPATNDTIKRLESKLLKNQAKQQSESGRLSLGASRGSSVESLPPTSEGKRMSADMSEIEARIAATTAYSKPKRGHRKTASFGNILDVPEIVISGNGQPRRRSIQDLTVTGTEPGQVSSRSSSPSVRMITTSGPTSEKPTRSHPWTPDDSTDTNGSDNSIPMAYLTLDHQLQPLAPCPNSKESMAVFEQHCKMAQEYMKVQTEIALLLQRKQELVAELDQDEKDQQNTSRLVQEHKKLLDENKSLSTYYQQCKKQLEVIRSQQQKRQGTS

[4] = molecular target: Insulin receptor-related protein (Homo sapiens) (UniProt P14616); assay: Selectivity interaction (SelectScreen profiling (Invitrogen)) EUB0000607a INSRR; settings: at 2 µM
Insulin receptor-related protein (Homo sapiens), sequence (P14616 27-742 limits assumed): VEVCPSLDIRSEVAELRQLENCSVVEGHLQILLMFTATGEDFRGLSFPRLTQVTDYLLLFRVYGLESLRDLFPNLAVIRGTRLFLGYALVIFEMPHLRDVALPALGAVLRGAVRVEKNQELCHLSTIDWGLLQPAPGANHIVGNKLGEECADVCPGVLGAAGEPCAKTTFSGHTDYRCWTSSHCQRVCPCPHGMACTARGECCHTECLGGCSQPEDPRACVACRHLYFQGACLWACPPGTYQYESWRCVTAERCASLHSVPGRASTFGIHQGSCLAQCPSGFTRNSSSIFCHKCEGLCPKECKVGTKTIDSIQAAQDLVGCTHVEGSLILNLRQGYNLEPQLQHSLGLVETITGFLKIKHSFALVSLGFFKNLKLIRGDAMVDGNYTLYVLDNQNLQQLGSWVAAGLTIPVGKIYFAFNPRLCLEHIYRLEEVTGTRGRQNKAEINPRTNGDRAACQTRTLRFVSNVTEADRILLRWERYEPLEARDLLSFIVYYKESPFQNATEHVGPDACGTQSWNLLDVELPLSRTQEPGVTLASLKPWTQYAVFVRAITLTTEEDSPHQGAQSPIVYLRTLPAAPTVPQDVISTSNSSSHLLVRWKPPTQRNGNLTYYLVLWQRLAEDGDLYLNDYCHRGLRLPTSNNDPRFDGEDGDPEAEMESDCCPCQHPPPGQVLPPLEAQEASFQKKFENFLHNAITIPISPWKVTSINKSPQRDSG
Insulin receptor-related protein (Homo sapiens), sequence (P14616 747-1297 limits assumed): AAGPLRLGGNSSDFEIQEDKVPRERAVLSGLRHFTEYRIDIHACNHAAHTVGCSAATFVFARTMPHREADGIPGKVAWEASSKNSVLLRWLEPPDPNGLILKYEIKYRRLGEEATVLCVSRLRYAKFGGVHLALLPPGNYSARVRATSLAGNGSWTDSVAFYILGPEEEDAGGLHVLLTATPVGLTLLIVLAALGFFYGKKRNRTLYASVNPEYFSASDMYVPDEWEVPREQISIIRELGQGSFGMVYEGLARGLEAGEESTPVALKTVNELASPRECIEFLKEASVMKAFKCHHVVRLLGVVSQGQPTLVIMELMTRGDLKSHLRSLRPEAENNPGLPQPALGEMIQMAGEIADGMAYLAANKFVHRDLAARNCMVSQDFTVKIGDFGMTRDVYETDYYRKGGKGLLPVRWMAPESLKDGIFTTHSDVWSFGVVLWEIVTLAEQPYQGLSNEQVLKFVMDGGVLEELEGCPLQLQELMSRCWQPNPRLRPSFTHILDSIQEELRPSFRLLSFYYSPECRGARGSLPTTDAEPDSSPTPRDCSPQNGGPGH

[5] = molecular target: Insulin receptor-related protein (Homo sapiens) (UniProt P14616); assay: Selectivity interaction (Upstate Kinase Profiler service (Millipore)) EUB0000056c INSRR; settings: at 1 µM
[6] = molecular target: Phosphatidylinositol 4-phosphate 5-kinase type-1 alpha (Homo sapiens) (UniProt Q99755); settings: at 10 µM
Phosphatidylinositol 4-phosphate 5-kinase type-1 alpha (Homo sapiens), sequence (Q99755 whole entry): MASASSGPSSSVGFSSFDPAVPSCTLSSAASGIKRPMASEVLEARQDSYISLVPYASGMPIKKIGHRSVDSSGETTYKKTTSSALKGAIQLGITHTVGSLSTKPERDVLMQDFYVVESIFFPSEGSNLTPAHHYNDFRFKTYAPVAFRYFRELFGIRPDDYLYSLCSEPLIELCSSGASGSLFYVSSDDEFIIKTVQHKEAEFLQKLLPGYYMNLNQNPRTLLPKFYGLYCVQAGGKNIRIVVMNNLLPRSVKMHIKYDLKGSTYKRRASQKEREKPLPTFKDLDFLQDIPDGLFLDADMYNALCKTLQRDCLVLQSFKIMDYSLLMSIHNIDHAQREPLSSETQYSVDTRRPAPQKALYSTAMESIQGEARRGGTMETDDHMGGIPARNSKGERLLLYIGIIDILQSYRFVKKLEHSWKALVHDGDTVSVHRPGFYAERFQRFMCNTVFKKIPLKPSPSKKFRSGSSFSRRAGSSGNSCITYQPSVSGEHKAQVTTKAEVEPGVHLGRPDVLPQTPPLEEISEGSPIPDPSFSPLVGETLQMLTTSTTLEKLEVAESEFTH

[7] = molecular target: Protein-tyrosine kinase 2-beta (Homo sapiens) (UniProt Q14289); assay: Selectivity interaction (Kinase panel (Invitrogen)) EUB0000639a PTK2B; settings: at 200 nM
Protein-tyrosine kinase 2-beta (Homo sapiens), sequence (Q14289 whole entry, looked up): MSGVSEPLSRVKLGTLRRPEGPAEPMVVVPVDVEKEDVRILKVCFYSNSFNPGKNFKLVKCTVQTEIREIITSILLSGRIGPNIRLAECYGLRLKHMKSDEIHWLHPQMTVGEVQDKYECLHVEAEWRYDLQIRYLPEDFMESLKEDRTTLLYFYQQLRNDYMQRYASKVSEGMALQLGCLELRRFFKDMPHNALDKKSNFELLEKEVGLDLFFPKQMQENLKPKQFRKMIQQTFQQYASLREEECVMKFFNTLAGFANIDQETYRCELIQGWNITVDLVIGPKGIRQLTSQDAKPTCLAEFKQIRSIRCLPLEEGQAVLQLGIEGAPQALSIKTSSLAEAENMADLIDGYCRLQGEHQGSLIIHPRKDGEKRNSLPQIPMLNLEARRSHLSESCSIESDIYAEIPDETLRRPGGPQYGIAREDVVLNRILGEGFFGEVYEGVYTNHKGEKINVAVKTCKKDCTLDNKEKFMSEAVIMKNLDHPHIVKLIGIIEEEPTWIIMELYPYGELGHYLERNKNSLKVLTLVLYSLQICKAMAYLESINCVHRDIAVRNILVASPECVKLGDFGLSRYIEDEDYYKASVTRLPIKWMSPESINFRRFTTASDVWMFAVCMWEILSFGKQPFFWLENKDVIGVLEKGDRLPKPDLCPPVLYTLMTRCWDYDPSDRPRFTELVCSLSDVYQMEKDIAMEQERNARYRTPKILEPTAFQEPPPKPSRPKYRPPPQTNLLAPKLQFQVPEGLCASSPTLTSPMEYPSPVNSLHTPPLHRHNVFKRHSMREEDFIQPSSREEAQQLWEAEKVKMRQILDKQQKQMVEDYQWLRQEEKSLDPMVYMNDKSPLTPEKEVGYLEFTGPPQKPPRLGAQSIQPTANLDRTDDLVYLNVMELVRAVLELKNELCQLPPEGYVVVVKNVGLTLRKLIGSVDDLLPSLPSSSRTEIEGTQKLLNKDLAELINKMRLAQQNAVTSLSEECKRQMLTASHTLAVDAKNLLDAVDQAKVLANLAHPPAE

[8] = molecular target: T3, 5-hydroxytryptamine receptor 3A (Homo sapiens) (UniProt P46098); assay: Selectivity interaction (Panel of non-epigenetic targets (kinases, GPCRs, ion channels, and transporters, Eurofins) ) EUB0000271b HTR3A; settings: at 1 µM
T3 sequence (whole entry): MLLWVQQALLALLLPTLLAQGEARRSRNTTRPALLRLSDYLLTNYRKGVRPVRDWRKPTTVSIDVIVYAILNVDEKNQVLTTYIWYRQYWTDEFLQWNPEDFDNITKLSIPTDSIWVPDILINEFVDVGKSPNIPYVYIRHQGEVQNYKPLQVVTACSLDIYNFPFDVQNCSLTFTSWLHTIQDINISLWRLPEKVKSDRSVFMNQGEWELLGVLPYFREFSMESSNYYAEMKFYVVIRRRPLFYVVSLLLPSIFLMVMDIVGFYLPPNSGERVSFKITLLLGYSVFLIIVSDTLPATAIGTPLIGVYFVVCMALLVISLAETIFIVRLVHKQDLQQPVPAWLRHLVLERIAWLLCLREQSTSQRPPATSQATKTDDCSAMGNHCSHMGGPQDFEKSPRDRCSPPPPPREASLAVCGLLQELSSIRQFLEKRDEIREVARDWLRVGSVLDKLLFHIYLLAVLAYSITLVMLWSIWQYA

[9] = molecular target: Serine/threonine-protein kinase 32A (Homo sapiens) (UniProt Q8WU08); assay: Selectivity interaction (KinomeScan (DiscoverX)) EUB0000595a STK32A; settings: at 10 µM
Serine/threonine-protein kinase 32A (Homo sapiens), sequence (Q8WU08 whole entry, the tested form may be a part): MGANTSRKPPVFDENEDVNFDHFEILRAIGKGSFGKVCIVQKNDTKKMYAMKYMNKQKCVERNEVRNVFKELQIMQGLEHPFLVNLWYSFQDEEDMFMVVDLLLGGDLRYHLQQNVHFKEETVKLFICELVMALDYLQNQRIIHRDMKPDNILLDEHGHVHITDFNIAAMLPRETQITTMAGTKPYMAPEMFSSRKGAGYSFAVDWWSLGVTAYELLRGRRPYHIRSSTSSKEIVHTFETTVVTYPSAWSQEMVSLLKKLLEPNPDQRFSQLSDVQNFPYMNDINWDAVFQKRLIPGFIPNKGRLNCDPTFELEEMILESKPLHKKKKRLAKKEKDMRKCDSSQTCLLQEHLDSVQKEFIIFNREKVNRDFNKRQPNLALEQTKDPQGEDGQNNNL

[10] = molecular target: ATPase family AAA domain-containing protein 2 (Homo sapiens) (UniProt Q6PL18); assay: Selectivity interaction (Bromodomain panel (DSF asssay)) EUB0000270b ATAD2
ATPase family AAA domain-containing protein 2 (Homo sapiens), sequence (Q6PL18 whole entry, the tested form may be a part): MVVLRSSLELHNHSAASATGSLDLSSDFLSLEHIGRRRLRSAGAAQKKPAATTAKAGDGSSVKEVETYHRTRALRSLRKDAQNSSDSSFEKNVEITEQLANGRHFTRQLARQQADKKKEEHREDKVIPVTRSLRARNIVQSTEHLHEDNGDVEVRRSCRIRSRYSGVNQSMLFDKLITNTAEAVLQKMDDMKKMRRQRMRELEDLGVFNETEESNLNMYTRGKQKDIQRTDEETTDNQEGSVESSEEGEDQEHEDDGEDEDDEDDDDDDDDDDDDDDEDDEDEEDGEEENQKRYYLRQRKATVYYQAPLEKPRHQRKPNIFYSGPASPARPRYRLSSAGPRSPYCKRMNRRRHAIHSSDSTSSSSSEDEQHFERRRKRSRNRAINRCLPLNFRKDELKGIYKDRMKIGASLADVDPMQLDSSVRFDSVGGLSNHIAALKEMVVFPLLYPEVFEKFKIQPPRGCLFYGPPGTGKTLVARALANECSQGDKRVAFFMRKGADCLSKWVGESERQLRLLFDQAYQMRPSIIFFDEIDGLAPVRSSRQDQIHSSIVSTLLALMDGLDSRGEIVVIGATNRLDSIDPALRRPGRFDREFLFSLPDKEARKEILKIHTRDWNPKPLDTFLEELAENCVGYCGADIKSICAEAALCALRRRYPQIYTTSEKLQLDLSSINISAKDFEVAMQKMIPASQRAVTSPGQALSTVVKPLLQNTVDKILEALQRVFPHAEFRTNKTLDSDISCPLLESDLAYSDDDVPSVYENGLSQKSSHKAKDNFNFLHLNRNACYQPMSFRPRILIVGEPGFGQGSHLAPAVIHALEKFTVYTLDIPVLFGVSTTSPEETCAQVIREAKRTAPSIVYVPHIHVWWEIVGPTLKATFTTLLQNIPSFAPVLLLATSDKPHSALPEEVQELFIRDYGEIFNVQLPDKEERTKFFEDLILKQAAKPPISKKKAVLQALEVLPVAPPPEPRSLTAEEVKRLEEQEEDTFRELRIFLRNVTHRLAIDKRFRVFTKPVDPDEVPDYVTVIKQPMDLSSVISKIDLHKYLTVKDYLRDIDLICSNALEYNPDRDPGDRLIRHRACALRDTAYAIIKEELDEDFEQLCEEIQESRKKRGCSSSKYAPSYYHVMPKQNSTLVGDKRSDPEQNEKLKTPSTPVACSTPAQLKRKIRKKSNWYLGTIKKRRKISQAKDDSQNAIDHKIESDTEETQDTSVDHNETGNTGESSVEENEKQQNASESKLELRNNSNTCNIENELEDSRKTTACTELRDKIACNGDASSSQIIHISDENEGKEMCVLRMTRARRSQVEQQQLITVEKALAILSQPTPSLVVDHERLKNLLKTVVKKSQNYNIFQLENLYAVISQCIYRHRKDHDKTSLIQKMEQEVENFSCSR

[11] = molecular target: Lethal(3)malignant brain tumor-like protein 1 (Homo sapiens) (UniProt Q9Y468); assay: Selectivity interaction (PWWP, WD40, and Tudor domain panel (DSLS measurements, literature)) EUB0000270b L3MBTL
[12] = molecular target: Interferon-induced, double-stranded RNA-activated protein kinase (Homo sapiens) (UniProt P19525); assay: Selectivity interaction (KinomeScan (DiscoverX)) EUB0000092b EIF2AK2; settings: at 10 µM
[13] = molecular target: Cyclin-dependent kinase 18 (Homo sapiens) (UniProt Q07002); settings: at 10 µM

% of inhibition [1]: 15.2%
Compound: Cn1cc(-n2cnc3c(NCc4nc5cc(Cl)c(Cl)cc5[nH]4)nc(N4CCOCC4)nc32)cn1

Compound: O=C(NOC[C@H](O)CO)c1ccc(F)c(F)c1Nc1ccc(I)cc1F
% of control [2]: 66% | % of control [3]: 75%

Compound: CNC(=O)Nc1ccc(-c2nc(N3CC4CCC(C3)O4)c3cnn(C4CCC5(CC4)OCCO5)c3n2)cc1
% of inhibition [4]: 6%

% of inhibition [5]: -8%
Compound: Cc1ccc(-c2ccc3c(ccc4sc5c(c43)NC[C@@H](C)NC5=O)n2)cn1

% of control [6]: 100%
Compound: CCN(CC)CCCCNc1ncc2cc(-c3cc(OC)cc(OC)c3)c(NC(=O)NC(C)(C)C)nc2n1

% of inhibition [7]: -0.0574%
Compound: CC[C@@H]1[C@H](F)C(=O)N[C@@H]1COc1nccc2cc(C(N)=O)c(OC)cc12 [ZIMLOVISERTIB]

Compound: Cc1cc(C)cc([C@@H]2c3cc(C)ccc3NC(=O)CN2C(=O)c2ccc(Br)s2)c1
% of inhibition [8]: -5%

Compound: COCC(=O)NC/C=C/c1ccc2ncnc(Nc3ccc(Oc4ccc(C)nc4)c(C)c3)c2c1 [CP-724714]
% of control [9]: 100%

dTM [10]: -1.82 K
Compound: Cc1cc(CN)cc(C)c1-c1ncn(C)c1-c1cncn1C
dTagg [11]: 0.2 K

Compound: CCC(=O)N1CCN(c2ccc(-n3c(=O)ccc4cnc5ccc(-c6cnc7ccccc7c6)cc5c43)cc2C(F)(F)F)CC1
% of control [12]: 88%

Compound: Cc1cc([C@@H](C)Nc2ccccc2C(=O)O)c2nc(N3CCOCC3)cc(=O)n2c1 [AZD-6482]
% of control [13]: 100%
